# Measurements taken from ChEMBL document CHEMBL5360526, “Discovery of BET specific bromodomain inhibitors with a novel scaffold” (Bioorg Med Chem, 2022).
# Legend:
# [1] = target: T1, Bromodomain-containing protein 4 (Homo sapiens, UniProt O60885); assay: Inhibition of BRD4 BD2 (unknown origin) using SGRGK(Ac)GGK(Ac)GLGK(Ac) GGAK(Ac)RHRK-biotinylated peptide as substrate incubated for 60 mins by alpha screen assay
# [2] = target: T1, Bromodomain-containing protein 4; assay: Inhibition of N-terminal GST-tagged/C-terminal 6His-tagged BRD4 BD1 (47 to 170 residues) (unknown origin) expressed in Escherichia coli BL21 (DE3) using SGRGK(Ac)GGK(Ac)GLGK(Ac) GGAK(Ac)RHRK-biotinylated peptide as substrate incubated for 60 mins by alpha screen assay
# [3] = target: T1, Bromodomain-containing protein 4; assay: Inhibition of BRD4 BD2 (unknown origin) assessed as remaining activity
# [4] = target: Chromatin remodeling regulator CECR2 (Homo sapiens) (UniProt Q9BXF3); assay: Inhibition of CECR2 (unknown origin) assessed as remaining activity
# [5] = target: Bromodomain testis-specific protein (Homo sapiens) (UniProt Q58F21); assay: Inhibition of BRDT BD2 (unknown origin) assessed as remaining activity
# [6] = target: Transcription initiation factor TFIID subunit 1 (Homo sapiens) (UniProt P21675); assay: Inhibition of TAF1 BD2 (unknown origin) assessed as remaining activity
# [7] = target: Nucleosome-remodeling factor subunit BPTF (Homo sapiens) (UniProt Q12830); assay: Inhibition of FALZ (unknown origin) assessed as remaining activity
# [8] = target: Transcription intermediary factor 1-alpha (Homo sapiens) (UniProt O15164); assay: Inhibition of TRIM24 (unknown origin) assessed as remaining activity
# [9] = target: Transcription initiation factor TFIID subunit 1-like (Homo sapiens) (UniProt Q8IZX4); assay: Inhibition of TAF1L BD2 (unknown origin) assessed as remaining activity
# [10] = target: Histone acetyltransferase KAT2B (Homo sapiens) (UniProt Q92831); assay: Inhibition of PCAF (unknown origin) assessed as remaining activity
# [11] = target: ATPase family AAA domain-containing protein 2 (Homo sapiens) (UniProt Q6PL18); assay: Inhibition of ATAD2A (unknown origin) assessed as remaining activity
# [12] = target: Bromodomain-containing protein 1 (Homo sapiens) (UniProt O95696); assay: Inhibition of BRD1 (unknown origin) assessed as remaining activity
# [13] = target: ATPase family AAA domain-containing protein 2B (Homo sapiens) (UniProt Q9ULI0); assay: Inhibition of ATAD2B (unknown origin) assessed as remaining activity
# ATPase family AAA domain-containing protein 2B (Homo sapiens), sequence (Q9ULI0 whole entry, the tested form may be a part): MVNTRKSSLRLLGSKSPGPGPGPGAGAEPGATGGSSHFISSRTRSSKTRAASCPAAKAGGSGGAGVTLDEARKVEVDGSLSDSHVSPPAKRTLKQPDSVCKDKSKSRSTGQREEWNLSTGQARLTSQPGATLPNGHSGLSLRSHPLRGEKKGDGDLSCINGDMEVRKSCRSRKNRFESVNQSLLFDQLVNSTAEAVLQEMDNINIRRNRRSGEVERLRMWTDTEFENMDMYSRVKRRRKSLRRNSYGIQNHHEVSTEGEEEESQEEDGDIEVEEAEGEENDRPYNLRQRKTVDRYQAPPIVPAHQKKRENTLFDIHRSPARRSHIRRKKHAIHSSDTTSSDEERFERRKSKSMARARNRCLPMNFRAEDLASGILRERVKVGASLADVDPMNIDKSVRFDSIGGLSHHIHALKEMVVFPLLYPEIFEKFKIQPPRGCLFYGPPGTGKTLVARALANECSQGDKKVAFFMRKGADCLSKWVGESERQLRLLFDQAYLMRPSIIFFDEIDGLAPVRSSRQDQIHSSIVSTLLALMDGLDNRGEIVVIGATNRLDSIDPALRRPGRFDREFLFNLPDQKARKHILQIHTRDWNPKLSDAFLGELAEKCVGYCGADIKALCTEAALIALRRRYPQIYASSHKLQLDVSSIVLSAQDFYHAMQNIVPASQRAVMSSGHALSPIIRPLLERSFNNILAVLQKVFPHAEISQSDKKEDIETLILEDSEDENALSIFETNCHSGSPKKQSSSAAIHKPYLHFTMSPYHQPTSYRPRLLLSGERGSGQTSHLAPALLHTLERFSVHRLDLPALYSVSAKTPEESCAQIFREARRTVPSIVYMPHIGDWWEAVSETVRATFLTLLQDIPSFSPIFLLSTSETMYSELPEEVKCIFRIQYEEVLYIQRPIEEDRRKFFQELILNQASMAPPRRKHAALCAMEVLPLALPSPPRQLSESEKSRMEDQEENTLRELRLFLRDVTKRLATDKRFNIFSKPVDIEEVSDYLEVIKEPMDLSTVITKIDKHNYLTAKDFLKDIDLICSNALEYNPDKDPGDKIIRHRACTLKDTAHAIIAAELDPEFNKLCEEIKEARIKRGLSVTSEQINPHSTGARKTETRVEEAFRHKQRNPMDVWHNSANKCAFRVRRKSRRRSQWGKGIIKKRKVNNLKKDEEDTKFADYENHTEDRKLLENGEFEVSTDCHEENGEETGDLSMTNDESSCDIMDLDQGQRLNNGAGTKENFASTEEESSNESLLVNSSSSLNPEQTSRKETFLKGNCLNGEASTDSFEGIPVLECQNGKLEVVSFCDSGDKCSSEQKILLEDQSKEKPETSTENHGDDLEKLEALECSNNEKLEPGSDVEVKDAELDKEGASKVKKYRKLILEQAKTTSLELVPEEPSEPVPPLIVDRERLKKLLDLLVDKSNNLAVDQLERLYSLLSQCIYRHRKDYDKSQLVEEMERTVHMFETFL
# [14] = target: Bromodomain testis-specific protein (Homo sapiens) (UniProt Q58F21); assay: Inhibition of BRDT BD1 (unknown origin) assessed as remaining activity
# [15] = target: Bromodomain-containing protein 9 (Homo sapiens) (UniProt Q9H8M2); assay: Inhibition of BRD9 (unknown origin) assessed as remaining activity
# [16] = target: Bromodomain-containing protein 3 (Homo sapiens) (UniProt Q15059); assay: Inhibition of BRD3 BD1 (unknown origin) assessed as remaining activity
# Bromodomain-containing protein 3 (Homo sapiens), sequence (Q15059 2-726 limits assumed): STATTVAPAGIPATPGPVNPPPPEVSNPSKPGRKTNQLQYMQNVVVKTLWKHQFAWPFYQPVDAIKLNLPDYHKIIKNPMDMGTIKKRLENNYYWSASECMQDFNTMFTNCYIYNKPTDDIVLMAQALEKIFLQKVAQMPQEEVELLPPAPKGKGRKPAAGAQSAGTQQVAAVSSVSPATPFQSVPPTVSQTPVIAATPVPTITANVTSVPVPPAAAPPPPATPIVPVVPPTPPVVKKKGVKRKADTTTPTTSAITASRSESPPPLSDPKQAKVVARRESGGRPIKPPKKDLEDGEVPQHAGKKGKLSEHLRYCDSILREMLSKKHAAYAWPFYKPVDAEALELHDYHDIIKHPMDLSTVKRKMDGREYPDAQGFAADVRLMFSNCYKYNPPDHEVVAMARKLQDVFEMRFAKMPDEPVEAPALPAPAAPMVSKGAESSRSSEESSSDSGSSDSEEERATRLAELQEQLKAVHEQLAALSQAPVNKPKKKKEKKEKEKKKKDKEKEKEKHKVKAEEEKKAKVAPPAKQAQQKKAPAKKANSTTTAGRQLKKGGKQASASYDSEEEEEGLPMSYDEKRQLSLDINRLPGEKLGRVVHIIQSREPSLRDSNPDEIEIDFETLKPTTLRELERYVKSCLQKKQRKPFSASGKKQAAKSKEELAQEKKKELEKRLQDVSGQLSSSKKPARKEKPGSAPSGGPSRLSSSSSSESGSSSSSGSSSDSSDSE
# [17] = target: Bromodomain and WD repeat-containing protein 1 (Homo sapiens) (UniProt Q9NSI6); assay: Inhibition of WDR9 BD2 (unknown origin) assessed as remaining activity
# [18] = target: Bromodomain-containing protein 2 (Homo sapiens) (UniProt P25440); assay: Inhibition of BRD2 BD2 (unknown origin) assessed as remaining activity
# Bromodomain-containing protein 2 (Homo sapiens), sequence (P25440 whole entry, looked up): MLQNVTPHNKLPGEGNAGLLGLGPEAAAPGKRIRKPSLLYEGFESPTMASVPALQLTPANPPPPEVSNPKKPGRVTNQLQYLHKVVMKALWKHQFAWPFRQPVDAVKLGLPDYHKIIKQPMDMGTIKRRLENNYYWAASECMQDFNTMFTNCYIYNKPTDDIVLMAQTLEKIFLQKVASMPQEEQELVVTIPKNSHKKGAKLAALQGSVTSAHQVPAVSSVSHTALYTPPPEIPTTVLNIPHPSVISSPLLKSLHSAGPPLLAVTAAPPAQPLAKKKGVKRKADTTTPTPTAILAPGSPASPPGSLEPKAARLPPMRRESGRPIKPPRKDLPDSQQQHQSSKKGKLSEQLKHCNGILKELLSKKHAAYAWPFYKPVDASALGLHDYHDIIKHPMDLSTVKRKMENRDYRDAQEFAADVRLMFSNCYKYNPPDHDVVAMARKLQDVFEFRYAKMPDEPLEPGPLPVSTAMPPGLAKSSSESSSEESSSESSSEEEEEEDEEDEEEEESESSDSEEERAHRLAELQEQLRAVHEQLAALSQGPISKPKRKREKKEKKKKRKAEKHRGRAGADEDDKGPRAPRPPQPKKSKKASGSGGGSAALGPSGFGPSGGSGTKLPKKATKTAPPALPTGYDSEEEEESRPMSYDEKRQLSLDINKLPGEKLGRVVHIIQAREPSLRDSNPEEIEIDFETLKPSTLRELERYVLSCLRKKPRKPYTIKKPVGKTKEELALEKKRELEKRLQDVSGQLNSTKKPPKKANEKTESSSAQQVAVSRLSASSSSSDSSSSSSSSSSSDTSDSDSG
# [19] = target: Bromodomain and PHD finger-containing protein 3 (Homo sapiens) (UniProt Q9ULD4); assay: Inhibition of BRPF3 (unknown origin) assessed as remaining activity
# [20] = target: Bromodomain-containing protein 3 (Homo sapiens) (UniProt Q15059); assay: Inhibition of BRD3 BD2 (unknown origin) assessed as remaining activity
# [21] = target: T1, Bromodomain-containing protein 4; assay: Inhibition of BRD4 BD1 (unknown origin) assessed as remaining activity
# [22] = target: Histone acetyltransferase KAT2A (Homo sapiens) (UniProt Q92830); assay: Inhibition of GCN5L2 (unknown origin) assessed as remaining activity
# [23] = target: Bromodomain adjacent to zinc finger domain protein 2B (Homo sapiens) (UniProt Q9UIF8); assay: Inhibition of BAZ2B (unknown origin) assessed as remaining activity
# [24] = target: SWI/SNF-related matrix-associated actin-dependent regulator of chromatin subfamily A member 4 (Homo sapiens) (UniProt P51532); assay: Inhibition of SMARCA4 (unknown origin) assessed as remaining activity
# [25] = target: CREB-binding protein (Homo sapiens) (UniProt Q92793); assay: Inhibition of CREBBP (unknown origin) assessed as remaining activity
# [26] = target: Bromodomain-containing protein 7 (Homo sapiens) (UniProt Q9NPI1); assay: Inhibition of BRD7 (unknown origin) assessed as remaining activity
# [27] = target: Bromodomain-containing protein 2 (Homo sapiens) (UniProt P25440); assay: Inhibition of BRD2 BD1 (unknown origin) assessed as remaining activity
# [28] = target: SWI/SNF-related matrix-associated actin-dependent regulator of chromatin subfamily A member 2 (Homo sapiens) (UniProt P51531); assay: Inhibition of SMARCA2 (unknown origin) assessed as remaining activity
# [29] = target: Peregrin (Homo sapiens) (UniProt P55201); assay: Inhibition of BRPF1 (unknown origin) assessed as remaining activity
# [30] = target: Protein polybromo-1 (Homo sapiens) (UniProt Q86U86); assay: Inhibition of PBRM1 BD2 (unknown origin) assessed as remaining activity
# Protein polybromo-1 (Homo sapiens), sequence (Q86U86 whole entry): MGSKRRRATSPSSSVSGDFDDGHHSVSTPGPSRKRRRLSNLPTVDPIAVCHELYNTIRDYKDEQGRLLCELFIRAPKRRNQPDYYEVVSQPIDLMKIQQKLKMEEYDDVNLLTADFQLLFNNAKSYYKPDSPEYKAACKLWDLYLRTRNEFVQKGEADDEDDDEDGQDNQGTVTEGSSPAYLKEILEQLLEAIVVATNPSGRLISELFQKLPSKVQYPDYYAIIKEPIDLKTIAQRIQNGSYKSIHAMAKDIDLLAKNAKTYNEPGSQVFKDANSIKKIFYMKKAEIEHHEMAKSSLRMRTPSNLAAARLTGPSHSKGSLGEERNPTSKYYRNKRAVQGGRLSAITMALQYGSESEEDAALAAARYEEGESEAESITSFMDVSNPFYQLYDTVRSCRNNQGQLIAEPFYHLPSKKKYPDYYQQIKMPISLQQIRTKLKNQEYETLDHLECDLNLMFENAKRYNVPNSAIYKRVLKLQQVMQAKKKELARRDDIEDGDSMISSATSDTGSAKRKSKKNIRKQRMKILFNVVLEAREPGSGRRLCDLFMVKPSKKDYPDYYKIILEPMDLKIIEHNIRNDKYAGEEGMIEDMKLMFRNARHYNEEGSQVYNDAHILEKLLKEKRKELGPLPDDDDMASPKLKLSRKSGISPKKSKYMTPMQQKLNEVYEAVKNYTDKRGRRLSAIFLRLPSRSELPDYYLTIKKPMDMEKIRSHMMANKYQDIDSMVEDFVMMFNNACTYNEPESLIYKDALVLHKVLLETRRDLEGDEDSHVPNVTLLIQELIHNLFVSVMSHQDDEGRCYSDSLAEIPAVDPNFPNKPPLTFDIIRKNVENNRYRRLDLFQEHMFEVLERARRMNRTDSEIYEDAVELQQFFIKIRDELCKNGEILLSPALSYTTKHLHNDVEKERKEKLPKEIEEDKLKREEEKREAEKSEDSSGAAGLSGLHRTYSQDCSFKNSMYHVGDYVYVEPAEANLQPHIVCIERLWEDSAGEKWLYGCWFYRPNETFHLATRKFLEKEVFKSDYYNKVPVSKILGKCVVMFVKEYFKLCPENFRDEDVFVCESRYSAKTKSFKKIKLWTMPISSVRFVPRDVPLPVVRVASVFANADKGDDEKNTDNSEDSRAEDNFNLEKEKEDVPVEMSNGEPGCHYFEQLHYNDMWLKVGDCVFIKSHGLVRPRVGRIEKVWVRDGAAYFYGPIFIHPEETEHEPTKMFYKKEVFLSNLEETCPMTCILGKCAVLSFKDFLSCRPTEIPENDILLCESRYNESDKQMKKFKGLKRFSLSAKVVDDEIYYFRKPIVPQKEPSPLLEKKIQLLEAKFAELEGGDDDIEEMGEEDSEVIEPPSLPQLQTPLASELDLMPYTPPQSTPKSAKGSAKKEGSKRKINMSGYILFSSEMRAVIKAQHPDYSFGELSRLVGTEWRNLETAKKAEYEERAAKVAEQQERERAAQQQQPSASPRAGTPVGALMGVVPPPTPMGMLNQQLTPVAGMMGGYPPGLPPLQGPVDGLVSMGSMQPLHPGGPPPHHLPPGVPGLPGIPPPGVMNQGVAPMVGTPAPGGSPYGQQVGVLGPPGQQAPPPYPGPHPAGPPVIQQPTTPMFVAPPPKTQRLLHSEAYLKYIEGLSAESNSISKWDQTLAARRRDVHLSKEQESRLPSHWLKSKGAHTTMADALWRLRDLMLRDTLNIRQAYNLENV
# [31] = Microsomal stability in mouse liver microsomes assessed as parent compound remaining measured after 30 mins; type: ADME, Microsome; conditions: read-out: Stability
# [32] = target: Protein polybromo-1 (Homo sapiens) (UniProt Q86U86); assay: Inhibition of PBRM1 BD5 (unknown origin) assessed as remaining activity
# [33] = target: Histone acetyltransferase p300 (Homo sapiens) (UniProt Q09472); assay: Inhibition of EP300 (unknown origin) assessed as remaining activity
# [34] = target: Bromodomain adjacent to zinc finger domain protein 2A (Homo sapiens) (UniProt Q9UIF9); assay: Inhibition of BAZ2A (unknown origin) assessed as remaining activity
# [35] = Microsomal stability in human liver microsomes assessed as parent compound remaining measured after 30 mins; type: ADME, Microsome; conditions: read-out: Stability
# [36] = target: E3 ubiquitin-protein ligase TRIM33 (Homo sapiens) (UniProt Q9UPN9); assay: Inhibition of TRIM33 (unknown origin) assessed as remaining activity
smiles,measurement,setting,value
CC(C)Nc1ccc(NS(=O)(=O)c2cccs2)c(Nc2ccc3[nH]nnc3c2)n1,IC50,[1],0.78 µM
same,IC50,[2],0.77 µM
CC(C)Nc1ccc(NS(=O)(=O)c2ccc(F)cc2)c(Nc2ccc3[nH]nnc3c2)n1,IC50,[1],0.3 µM
same,IC50,[2],0.24 µM
CC(C)Nc1ccc([N+](=O)[O-])c(Nc2ccc3c(c2)nnn3C)n1,IC50,[1],10.3 µM
same,IC50,[2],4.22 µM
CC(C)Nc1ccc(NS(=O)(=O)c2c(F)cc(F)cc2F)c(Nc2ccc3[nH]nnc3c2)n1,IC50,[1],0.9 µM
same,IC50,[2],0.62 µM
CN(C)S(=O)(=O)Nc1ccc(NCc2ccco2)nc1Nc1ccc2[nH]nnc2c1,IC50,[1],23 µM
same,IC50,[2],6.22 µM
CC(C)Nc1ccc(NS(=O)(=O)c2ccccc2)c(Nc2ccc3[nH]nnc3c2)n1,IC50,[1],0.64 µM
same,IC50,[2],0.51 µM
CN(C)S(=O)(=O)Nc1ccc(NCc2ccccc2)nc1Nc1ccc2[nH]nnc2c1,IC50,[2],2.23 µM
CC(C)Nc1ccc([N+](=O)[O-])c(Nc2ccc3c(c2)nnn3S(=O)(=O)c2ccc(F)cc2)n1,IC50,[1],6.17 µM
same,IC50,[2],3.87 µM
CC(C)Nc1ccc(NS(=O)(=O)N(C)C)c(Nc2ccc3[nH]nnc3c2)n1,IC50,[1],2.05 µM
same,IC50,[2],1.69 µM
CC(C)Nc1ccc([N+](=O)[O-])c(Nc2ccc3[nH]nnc3c2)n1,IC50,[1],10 µM
same,IC50,[2],9.8 µM
CN(C)S(=O)(=O)Nc1ccc(NCc2ccc(F)cc2F)nc1Nc1ccc2[nH]nnc2c1,IC50,[1],11.3 µM
same,IC50,[2],7.64 µM
CN(C)S(=O)(=O)Nc1ccc(NCC(O)c2ccccc2)nc1Nc1ccc2[nH]nnc2c1 (centres undefined),IC50,[1],5.11 µM
same,IC50,[2],5.59 µM
CCCS(=O)(=O)Nc1ccc(NC(C)C)nc1Nc1ccc2[nH]nnc2c1,IC50,[1],3.02 µM
same,IC50,[2],3.23 µM
CC(C)Nc1ccc(NS(=O)(=O)c2ccc(F)cc2F)c(Nc2ccc3[nH]nnc3c2)n1,IC50,[1],0.72 µM
same,IC50,[2],0.8 µM
CN(C)S(=O)(=O)Nc1ccc(NCCN2CCOCC2)nc1Nc1ccc2[nH]nnc2c1,IC50,[1],11.5 µM
same,IC50,[2],7.97 µM
CC(C)Nc1ccc(NC(=O)c2ccccc2)c(Nc2ccc3[nH]nnc3c2)n1,IC50,[1],12.3 µM
same,IC50,[2],3.98 µM
CN(C)S(=O)(=O)Nc1ccc(NC2COC2)nc1Nc1ccc2[nH]nnc2c1,IC50,[1],9.95 µM
same,IC50,[2],6.85 µM
COC(=O)NS(=O)(=O)Nc1ccc(NC(C)C)nc1Nc1ccc2[nH]nnc2c1,IC50,[1],1.06 µM
same,IC50,[2],1.18 µM
CC(C)Nc1ccc(NS(=O)(=O)C(C)C)c(Nc2ccc3[nH]nnc3c2)n1,IC50,[1],1.24 µM
same,IC50,[2],1.12 µM
CC(C)Nc1ccc(NS(C)(=O)=O)c(Nc2ccc3[nH]nnc3c2)n1,IC50,[1],2.86 µM
same,IC50,[2],2.47 µM
CC(C)Nc1ccc([N+](=O)[O-])c(Nc2ccc3c(c2)nnn3C(=O)Nc2ccccc2)n1,IC50,[1],5.84 µM
same,IC50,[2],5.13 µM
CN(C)S(=O)(=O)Nc1ccc(NCc2ccc(F)cc2)nc1Nc1ccc2[nH]nnc2c1,IC50,[2],5.24 µM
CN(C)S(=O)(=O)Nc1ccc(NCC(c2ccccc2)c2ccccc2)nc1Nc1ccc2[nH]nnc2c1,IC50,[2],8.83 µM
CC(C)Nc1ccc([N+](=O)[O-])c(Nc2ccc3c(c2)nnn3C(=O)c2ccccc2)n1,IC50,[1],10.2 µM
same,IC50,[2],4.27 µM
CN(C)S(=O)(=O)Nc1ccc(NCc2ccc3c(c2)OCO3)nc1Nc1ccc2[nH]nnc2c1,IC50,[2],7.7 µM
CC(C)Nc1ccc(NS(=O)(=O)c2ccccc2F)c(Nc2ccc3[nH]nnc3c2)n1,IC50,[1],1.66 µM
same,IC50,[2],1.42 µM
CN(C)S(=O)(=O)Nc1ccc(NCCc2c[nH]c3ccccc23)nc1Nc1ccc2[nH]nnc2c1,IC50,[2],3.62 µM
CN(C)S(=O)(=O)Nc1ccc(NCC2CCCO2)nc1Nc1ccc2[nH]nnc2c1 (centres undefined),IC50,[1],8.42 µM
same,IC50,[2],9.6 µM
CN(C)S(=O)(=O)Nc1ccc(NCc2cccc3ccccc23)nc1Nc1ccc2[nH]nnc2c1,IC50,[2],7.91 µM
COCC(C)Nc1ccc(NS(=O)(=O)N(C)C)c(Nc2ccc3[nH]nnc3c2)n1 (centres undefined),Activity,[3],22%
same,Activity,[4],73%
same,Activity,[5],32%
same,Activity,[6],31%
same,Activity,[7],77%
same,Activity,[8],98%
same,IC50,[1],8.01 µM
same,Activity,[9],86%
same,Activity,[10],88%
same,Activity,[11],66%
same,Activity,[12],42%
same,Activity,[13],55%
same,Activity,[14],2.7%
same,Activity,[15],64%
same,Activity,[16],0.95%
same,Activity,[17],44%
same,Activity,[18],19%
same,Activity,[19],71%
same,Activity,[20],35%
same,Activity,[21],0.45%
same,Activity,[22],88%
same,Activity,[23],84%
same,Activity,[24],75%
same,Activity,[25],88%
same,Activity,[26],67%
same,Activity,[27],0%
same,Activity,[28],62%
same,Activity,[29],78%
same,IC50,[2],2.86 µM
same,Activity,[30],44%
same,remaining at 0.5 h,[31],28%
same,Activity,[32],73%
same,Activity,[33],82%
same,Activity,[34],82%
same,remaining at 0.5 h,[35],32.9%
same,Activity,[36],92%
C[C@H](Nc1ccc(NS(=O)(=O)N(C)C)c(Nc2ccc3[nH]nnc3c2)n1)[C@@H](c1ccccc1)N(C)C,IC50,[1],6.9 µM
same,IC50,[2],3.22 µM
CN(C)S(=O)(=O)Nc1ccc(N2CCS(=O)(=O)CC2)nc1Nc1ccc2[nH]nnc2c1,IC50,[1],10.4 µM
same,IC50,[2],20.1 µM
CC(C)Nc1ccc(NS(=O)(=O)c2cccnc2)c(Nc2ccc3[nH]nnc3c2)n1,IC50,[1],0.8 µM
same,IC50,[2],0.83 µM
CN(C)S(=O)(=O)Nc1ccc(NCCc2ccccc2)nc1Nc1ccc2[nH]nnc2c1,IC50,[2],5.25 µM
CN(C)S(=O)(=O)Nc1ccc(N2C3CCC2COC3)nc1Nc1ccc2[nH]nnc2c1,IC50,[1],4.38 µM
same,IC50,[2],4.45 µM
CC(C)Nc1ccc(NS(=O)(=O)C2CC2)c(Nc2ccc3[nH]nnc3c2)n1,IC50,[1],1.8 µM
same,IC50,[2],1.83 µM
CN(C)S(=O)(=O)Nc1ccc(N2CCOCC2)nc1Nc1ccc2[nH]nnc2c1,IC50,[1],5.82 µM
same,IC50,[2],4.6 µM
CC(C)Nc1ccc(NS(=O)(=O)c2c(F)cccc2F)c(Nc2ccc3[nH]nnc3c2)n1,IC50,[1],1.04 µM
same,IC50,[2],0.78 µM
CN(C)S(=O)(=O)Nc1ccc(NCCO)nc1Nc1ccc2[nH]nnc2c1,IC50,[1],8.25 µM
same,IC50,[2],5.7 µM
CN(C)S(=O)(=O)Nc1ccc(NCC2CC2)nc1Nc1ccc2[nH]nnc2c1,IC50,[1],5.63 µM
same,IC50,[2],4.45 µM
CCS(=O)(=O)Nc1ccc(NC(C)C)nc1Nc1ccc2[nH]nnc2c1,IC50,[1],4.47 µM
same,IC50,[2],3.86 µM
CC(C)Nc1ccc(NC(=O)Nc2ccccc2)c(Nc2ccc3[nH]nnc3c2)n1,IC50,[1],10.2 µM
same,IC50,[2],6.89 µM
CN(C)S(=O)(=O)Nc1ccc(NCCCN2CCOCC2)nc1Nc1ccc2[nH]nnc2c1,IC50,[1],15 µM
same,IC50,[2],5.41 µM
CC(C)Nc1ccc([N+](=O)[O-])c(Nc2ccc3c(c2)nnn3S(=O)(=O)c2ccccc2)n1,IC50,[1],4.47 µM
same,IC50,[2],3.1 µM
CC(C)Nc1ccc(NS(=O)(=O)C2CCCCC2)c(Nc2ccc3[nH]nnc3c2)n1,IC50,[1],0.9 µM
same,IC50,[2],0.66 µM
CC(C)Nc1ccc(NS(=O)(=O)c2ccccc2C(F)(F)F)c(Nc2ccc3[nH]nnc3c2)n1,IC50,[1],1.57 µM
same,IC50,[2],1.61 µM
